Our source for the logP values is the OPERA property sets (Mansouri et al. 2018).

Broadly, the logP is the decadic logarithm of the partition coefficient of the neutral form, usually between octanol and water. The low end stands for a more hydrophilic compound, the high end for a more lipophilic compound. The molecule `CCCCCCCCC#N` registered a lipophilicity (logP) of 3.12.

The molecule `N#CCCCCl` showed a lipophilicity (logP) of 0.56.

In the case of `CC(C)C#N`, the logP was determined as 0.46.

In turn, `C=C(C)C#N` had a lipophilicity (logP) of 0.68.

The molecule `CCCC#N` had a logP of 0.53.

Turning to `C=CCC#N`, the log partition coefficient (logP) was found to be 0.4.

The molecule `CCCCCC#N` gave a log partition coefficient (logP) of 1.66.

In turn, `CC(C)CCC#N` showed a logP of 1.54.

Molecule `N#CCCCl` had a logP of 0.18.

The molecule `CCC(C)C#N` (stereo unspecified) had a lipophilicity (logP) of 1.05.

For the molecule `CCCCCCCC#N`, the logP came out at 2.75.
